Laboratory results from PMC12628701, “Paroxysmal Nocturnal Hemoglobinuria in Pregnancy Treated With Pegcetacoplan: Case Report and Pharmacokinetic Analysis” (EJHaem, 2025).

Assays:
[1] = system: patient with hemolytic PNH and infant; test: Clinical tolerability and neonatal outcomes; type: in vivo, human
Method: (§1) Maternal and fetal outcomes were assessed throughout the third trimester and postpartum. Hematological response was evaluated using serial measurements of hemoglobin, hemolytic markers, and transfusion requirements. Complement levels/activity were measured using immunoturbidimetric assays for C3/C4 (Roche Diagnostics, Germany), and 50% hemolytic complement (CH50) by turbidimetric assay (Optilite, Binding Site, UK). Maternal clinical monitoring included evaluation for breakthrough hemolysis, thrombotic events, and other adverse events. Neonatal outcomes included gestational age at delivery, mode of delivery, birth weight, Apgar scores, and any complications identified during birth, hospitalization, or early follow‐up.

[2] = Pegcetacoplan concentration in maternal plasma (LC-MS/MS); type: in vivo, human; conditions: LLOQ 10 µg/mL
Method: (§2) Maternal blood samples were obtained during routine collections pre‐ and postpartum. Cord blood samples were obtained from the umbilical vein at the time of delivery. Breast milk samples were collected on postpartum Days 1 and 2. Quantitative analysis of pegcetacoplan concentrations in maternal plasma, umbilical cord blood plasma, and breast milk was performed by an independent, accredited laboratory (Q^2 Solutions BioSciences, USA) using a validated liquid chromatography‐tandem mass spectrometry method incorporating pegcetacoplan‐d22 as internal standard, with lower limits of quantification of 10 and 20 µg/mL for plasma and breast milk, respectively.

[3] = Pegcetacoplan concentration in umbilical cord blood plasma (placental transfer, LC-MS/MS); type: in vivo, human; conditions: umbilical vein at delivery, LLOQ 10 µg/mL
Method: as §2

[4] = Pegcetacoplan concentration in breast milk (lactational transfer, LC-MS/MS); type: in vivo, human
Method: as §2

[5] = system: patient with hemolytic PNH; test: Hematological response (hemoglobin, hemolytic markers, transfusion requirements) in pregnant patient with PNH; type: in vivo, human; conditions: for Hapto: normal 0.3–2.0; for ARC: normal 10–100; for Hb: normal 115–160; for Bili: normal ≤ 21; for LDH: normal ≤ 214
Method: Prophylactic‐dose dalteparin was prescribed. […] Informed consent was obtained for off‐label use in pregnancy, pharmacokinetic sampling, and case reporting. Institutional ethics board review exemption was granted for this single‐patient case report.
as §1

complement C3, C4, CH50 = test: Complement levels/activity (C3/C4 immunoturbidimetric, CH50 turbidimetric) in patient; type: in vivo, human; conditions: for CH50: normal 42–95; for C4: normal 0.1–0.4; for C3: normal 0.9–1.8
Method: as §1

hemoglobin response = conditions: plasma concentration; no reference given; cited from earlier work
Method: Pegcetacoplan was undetectable in all three cord blood samples (< 10 µg/mL), with no identifiable mass spectrometry peaks, indicating no measurable transplacental drug transfer. Pegcetacoplan was likewise not detected in breast milk, with concentrations below the lower limit of quantification (< 20 µg/mL, Table 2).

cynomolgus monkeys = conditions: cynomolgus monkey, in vivo; cited from earlier work
From the text: In our case, pegcetacoplan was undetectable in all cord blood and breast milk samples, ...

[6] = later the same day following delivery
[7] = 3 + 5 w gestation, on pegcetacoplan before switch to eculizumab
[8] = 28 + 1 w, date of pegcetacoplan reinitiation
[9] = 30 + 3 w, pegcetacoplan overlapping with eculizumab
[10] = 33 w, pegcetacoplan, dose escalation
[11] = 35 + 6 w, pegcetacoplan 1080 mg three times weekly
[12] = 37 + 2 w, date of delivery, pegcetacoplan
[13] = 37 w, pegcetacoplan 1080 mg three times weekly
[14] = after reinitiation of pegcetacoplan at 28 weeks' gestation
[15] = before pregnancy, pegcetacoplan 1080 mg subcutaneous twice-weekly

Question: With `CCO[C@H]1CCN(Cc2c(OC)cc(C)c3[nH]ccc23)[C@H](c2ccc(C(=O)O)cc2)C1` [iptacopan] as the compound, how does the Tolerability ([1]; before pregnancy, nausea unresponsive to antiemetics) read?
Answer: discontinued due to persistent nausea

Question: For pegcetacoplan, which “Concentration, maternal plasma, Sample 2” value [2, 6] is on record?
Answer: 625 µg/mL

Question: And the “Concentration, maternal plasma, Sample 3” value [2, 6]?
Answer: 587 µg/mL

Question: And the “Concentration, maternal plasma, Sample 1” value ([2]; morning prior to scheduled cesarean delivery, pegcetacoplan 1080 mg s.c. three times weekly)?
Answer: 719 µg/mL

Question: What about the “Concentration, cord blood plasma, Sample 1” value [3] of the same compound?
Answer: < LLOQ

Question: What about the “Concentration, cord blood plasma, Sample 2” value [3] of the same compound?
Answer: < LLOQ

Question: And the “Concentration, cord blood plasma, Sample 3” value [3]?
Answer: < LLOQ

Question: And the “Concentration, breast milk, Sample 1” value ([4]; postpartum Day 1, LLOQ 20 µg/mL)?
Answer: < LLOQ

Question: What about the “Concentration, breast milk, Sample 2” value ([4]; postpartum Day 2, LLOQ 20 µg/mL) of the same compound?
Answer: < LLOQ

Question: What about the Hapto [5, 7] of the same compound?
Answer: 1.85 g/L

Question: And the ARC [5, 7]?
Answer: 8e+10 L⁻¹

Question: And the Hb [5, 7]?
Answer: 109 g/L

Question: What about the Bili [5, 7] of the same compound?
Answer: 7 µmol/L

Question: And the LDH [5, 7]?
Answer: 153 U/L

Question: What about the ARC [5, 8] of the same compound?
Answer: 1.73e+11 L⁻¹

Question: And the Hb [5, 8]?
Answer: 87 g/L

Question: What about the Bili [5, 8] of the same compound?
Answer: 12 µmol/L

Question: And the LDH [5, 8]?
Answer: 208 U/L

Question: What about the ARC [5, 9] of the same compound?
Answer: 1.72e+11 L⁻¹

Question: What about the Hb [5, 9] of the same compound?
Answer: 93 g/L

Question: What about the Bili [5, 9] of the same compound?
Answer: 9 µmol/L

Question: And the LDH [5, 9]?
Answer: 205 U/L

Question: What about the Hapto [5, 10] of the same compound?
Answer: 0.89 g/L

Question: And the ARC [5, 10]?
Answer: 1.74e+11 L⁻¹

Question: What about the Hb [5, 10] of the same compound?
Answer: 96 g/L

Question: What about the Bili [5, 10] of the same compound?
Answer: 7 µmol/L

Question: And the LDH [5, 10]?
Answer: 215 U/L

Question: What about the Hapto [5, 11] of the same compound?
Answer: 0.84 g/L

Question: And the ARC [5, 11]?
Answer: 1.78e+11 L⁻¹

Question: And the Hb [5, 11]?
Answer: 103 g/L

Question: What about the Bili [5, 11] of the same compound?
Answer: 4 µmol/L

Question: What about the LDH [5, 11] of the same compound?
Answer: 208 U/L

Question: And the ARC [5, 12]?
Answer: 1.2e+11 L⁻¹

Question: What about the Hb [5, 12] of the same compound?
Answer: 102 g/L

Question: What about the Bili [5, 12] of the same compound?
Answer: 3 µmol/L

Question: And the LDH [5, 12]?
Answer: 210 U/L

Question: What about the Hapto [5, 13] of the same compound?
Answer: 0.1 g/L

Question: What about the ARC [5, 13] of the same compound?
Answer: 1.29e+11 L⁻¹

Question: And the Hb [5, 13]?
Answer: 103 g/L

Question: And the Bili [5, 13]?
Answer: 3 µmol/L

Question: What about the LDH [5, 13] of the same compound?
Answer: 231 U/L

Question: What about the ARC ([5]; PP 6 w, pegcetacoplan) of the same compound?
Answer: 1.46e+11 L⁻¹

Question: And the Hb ([5]; PP 6 w, pegcetacoplan)?
Answer: 107 g/L

Question: What about the Bili ([5]; PP 6 w, pegcetacoplan) of the same compound?
Answer: 4 µmol/L

Question: What about the LDH ([5]; PP 6 w, pegcetacoplan) of the same compound?
Answer: 203 U/L

Question: What about the ARC ([5]; PP 1 d, pegcetacoplan) of the same compound?
Answer: 1.03e+11 L⁻¹

Question: What about the Hb ([5]; PP 1 d, pegcetacoplan) of the same compound?
Answer: 88 g/L

Question: What about the Bili ([5]; PP 1 d, pegcetacoplan) of the same compound?
Answer: 3 µmol/L

Question: And the LDH ([5]; PP 1 d, pegcetacoplan)?
Answer: 378 U/L

Question: What about the ARC ([5]; PP 2 d, pegcetacoplan) of the same compound?
Answer: 1.07e+11 L⁻¹

Question: And the Hb ([5]; PP 2 d, pegcetacoplan)?
Answer: 86 g/L

Question: What about the Bili ([5]; PP 2 d, pegcetacoplan) of the same compound?
Answer: 3 µmol/L

Question: And the LDH ([5]; PP 2 d, pegcetacoplan)?
Answer: 351 U/L

Question: And the ARC ([5]; PP 3 d, pegcetacoplan)?
Answer: 1.06e+11 L⁻¹

Question: What about the Hb ([5]; PP 3 d, pegcetacoplan) of the same compound?
Answer: 86 g/L

Question: And the Bili ([5]; PP 3 d, pegcetacoplan)?
Answer: 3 µmol/L

Question: What about the LDH ([5]; PP 3 d, pegcetacoplan) of the same compound?
Answer: 327 U/L

Question: And the Hapto ([5]; PP 10 d, pegcetacoplan)?
Answer: 1.34 g/L

Question: And the ARC ([5]; PP 10 d, pegcetacoplan)?
Answer: 9.7e+10 L⁻¹

Question: What about the Hb ([5]; PP 10 d, pegcetacoplan) of the same compound?
Answer: 89 g/L

Question: What about the Bili ([5]; PP 10 d, pegcetacoplan) of the same compound?
Answer: 4 µmol/L

Question: And the LDH ([5]; PP 10 d, pegcetacoplan)?
Answer: 280 U/L

Question: What about the “Hemoglobin (range) during the third trimester” value [5, 14] of the same compound?
Answer: 92 to 103 g/L

Question: What about the Transfusions after resumption [5, 14] of the same compound?
Answer: no transfusions required

Question: What about the Hemoglobin stabilization [5, 15] of the same compound?
Answer: approximately 110 g/L

Question: What about the Transfusion status [5, 15] of the same compound?
Answer: achieved transfusion independence

Question: And the CH50 (complement C3, C4, CH50; [10])?
Answer: 17 U/mL

Question: What about the C4 (complement C3, C4, CH50; [11]) of the same compound?
Answer: 0.43 g/L

Question: What about the C3 (complement C3, C4, CH50; [11]) of the same compound?
Answer: 4.9 g/L

Question: What about the CH50 (complement C3, C4, CH50; [11]) of the same compound?
Answer: 102 U/mL

Question: And the C4 (complement C3, C4, CH50; [12])?
Answer: 0.37 g/L

Question: What about the C3 (complement C3, C4, CH50; [12]) of the same compound?
Answer: 4.7 g/L

Question: What about the CH50 (complement C3, C4, CH50; [12]) of the same compound?
Answer: 88 U/mL

Question: What about the CH50 (complement C3, C4, CH50; [13]) of the same compound?
Answer: 82 U/mL

Question: And the CH50 (complement C3, C4, CH50; PP 6 w, pegcetacoplan)?
Answer: 99 U/mL

Question: And the C4 (complement C3, C4, CH50; PP 1 d, pegcetacoplan)?
Answer: 0.34 g/L

Question: And the C3 (complement C3, C4, CH50; PP 1 d, pegcetacoplan)?
Answer: 4.33 g/L

Question: And the CH50 (complement C3, C4, CH50; PP 1 d, pegcetacoplan)?
Answer: 86.0 U/mL

Question: What about the C4 (complement C3, C4, CH50; PP 2 d, pegcetacoplan) of the same compound?
Answer: 0.35 g/L

Question: What about the C3 (complement C3, C4, CH50; PP 2 d, pegcetacoplan) of the same compound?
Answer: 4.5 g/L

Question: What about the CH50 (complement C3, C4, CH50; PP 2 d, pegcetacoplan) of the same compound?
Answer: > 103 U/mL

Question: What about the C4 (complement C3, C4, CH50; PP 3 d, pegcetacoplan) of the same compound?
Answer: 0.36 g/L

Question: And the C3 (complement C3, C4, CH50; PP 3 d, pegcetacoplan)?
Answer: 4.44 g/L

Question: And the CH50 (complement C3, C4, CH50; PP 3 d, pegcetacoplan)?
Answer: 97 U/mL

Question: And the Infant complications ([1]; infant exposed in partial first and full third trimester, 10-month follow-up)?
Answer: no complications observed

Question: And the “EC99, effective concentration for maximum hemoglobin response” value (hemoglobin response)?
Answer: 597 µg/mL

Question: What about the Fetal loss (cynomolgus monkeys) of the same compound?
Answer: increased fetal loss

Question: And the “Maternal toxicity or teratogenicity” value (cynomolgus monkeys)?
Answer: no evidence

Question: And the “Placental and breast milk transfer” value (cynomolgus monkeys)?
Answer: minimal
